Results: patent US8741894B2, “Arylsulfonamide CCR3 antagonists” (Axikin Pharmaceuticals, Inc., priority 2010, dated 2014)

Legend:
[1] = molecular target: T1, hERG channel (Homo sapiens, UniProt Q12809); assay: hERG Receptor Binding Assay (125I-BeKm-1, membranes from HEK-293 cells containing transfected hERG channels); settings: 1 hr at room temperature; for Ki at 1 h: human, pH 7.2, probe 125I-BeKm-1 (0.1 nM final); for Ki: 125I-BeKm-1 0.1 nM final
T1 construct: purchased Perkin Elmer RBHERGM400UA; host or cells: HEK-293 cells transfected with hERG (membrane preparation)
T1 sequence (Q12809 whole entry): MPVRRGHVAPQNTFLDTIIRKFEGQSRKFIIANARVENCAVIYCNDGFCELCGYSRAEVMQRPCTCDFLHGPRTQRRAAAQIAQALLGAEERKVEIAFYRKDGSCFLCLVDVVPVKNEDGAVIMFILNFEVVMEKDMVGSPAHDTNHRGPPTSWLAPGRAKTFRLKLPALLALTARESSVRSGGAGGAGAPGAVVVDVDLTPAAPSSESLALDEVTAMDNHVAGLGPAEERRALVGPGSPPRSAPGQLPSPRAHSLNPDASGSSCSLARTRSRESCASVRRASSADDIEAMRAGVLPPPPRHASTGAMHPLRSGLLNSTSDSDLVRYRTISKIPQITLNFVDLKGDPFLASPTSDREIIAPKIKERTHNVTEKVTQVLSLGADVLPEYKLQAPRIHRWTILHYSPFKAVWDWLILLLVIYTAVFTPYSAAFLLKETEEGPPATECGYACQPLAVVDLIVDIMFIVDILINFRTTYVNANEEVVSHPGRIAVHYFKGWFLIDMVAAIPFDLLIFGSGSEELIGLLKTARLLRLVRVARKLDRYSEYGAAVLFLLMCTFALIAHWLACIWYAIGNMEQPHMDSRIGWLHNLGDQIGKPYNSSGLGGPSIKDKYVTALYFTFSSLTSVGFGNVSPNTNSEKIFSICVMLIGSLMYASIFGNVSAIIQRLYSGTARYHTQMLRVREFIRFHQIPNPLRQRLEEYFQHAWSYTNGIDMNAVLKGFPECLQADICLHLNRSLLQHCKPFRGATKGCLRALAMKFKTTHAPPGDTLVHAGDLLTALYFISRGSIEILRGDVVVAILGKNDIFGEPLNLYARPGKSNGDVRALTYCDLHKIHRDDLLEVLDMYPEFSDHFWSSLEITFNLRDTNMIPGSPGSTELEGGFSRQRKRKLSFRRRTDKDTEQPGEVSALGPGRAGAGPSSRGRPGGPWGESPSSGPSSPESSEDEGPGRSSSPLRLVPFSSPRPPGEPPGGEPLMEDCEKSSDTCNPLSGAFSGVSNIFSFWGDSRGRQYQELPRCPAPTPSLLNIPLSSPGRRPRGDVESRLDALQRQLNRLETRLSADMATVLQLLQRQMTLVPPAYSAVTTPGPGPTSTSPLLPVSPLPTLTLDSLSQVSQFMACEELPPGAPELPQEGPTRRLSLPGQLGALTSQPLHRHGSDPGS
Protocol: Medium throughput screening of compounds for interaction with the human Ether-a-go-go related gene (hERG) was performed by modification of equilibrium dissociation assays using 125I-labelled peptide BeKm-1. BeKm-1, a scorpion toxin from the Central Asian scorpion Buthus eupeus, selectively blocks the hERG channel. Angelo, K., et al., 2003, Pflugers Arch.-Eur. J. Physiol., 447: 55-63; Chiu, P J S, et al., J. Pharmacol. Sci., 2004, 95: 311-319. Isolated membrane preparations from HEK-293 cells containing transfected hERG channels (hERG K+ Channel Membrane Target Systems™; Cat #, RBHERGM400UA) (Perkin Elmer, Boston, Mass.) were suspended in assay buffer A at a final concentration of 1:150 v/v. Compounds for screening, and non-radiolabelled BeKm-1, as well as 125I-BeKm-1 radioligand (Perkin Elmer; Cat #, NEX-412; Specific Activity 2,200 Ci/mmol), were also reconstituted in Buffer A. Assay components were incubated in 96-well, round-bottom polypropylene plates in the following ratio:
25 μl compound at appropriate concentrations
25 μl radiolabelled BeKm-1 at 0.8 nM (final concentration of 0.1 nM)
150 μl membrane preparation
The assay was incubated with shaking for 1 hr at room temperature. Subsequently, the well contents were transferred to 96-well filtration plates (GF/C multiwell plates (MultiScreen™ HTS; Millipore, 290 Concord Road, Billerica, Mass. 01821 USA; Cat# MSFBN6B-XX pre-soaked in 0.3% polyethyleneimine; Acros Organics, NJ; Cat#178571000). Unbound radioactivity was removed and the membranes washed 4 times with ice-cold Buffer B, under vacuum. Plates were air-dried and bound radioactivity counted on a Packard Top-Count NXT™ microplate scintillation and luminescence counter (Packard Instrument Co., Downers Grove, Ill.). Equilibrium dissociation was analyzed and IC50 and/or Ki values were calculated using GraphPad Prism 4™ software (GraphPad Software, San Diego, Calif.).
Assay Buffer A: ([…] (MP Biomedicals, LLC; 29525 Fountain Parkway, Solon Ohio, 441389; Cat #1688449) in water, pH 7.2 with 1M Tris (Fisher Chemicals, Fair Lawn, N.J. 07410; Cat #, BP-1757-500); 100 μM KCl (Fisher Chemicals, Cat #, BP-366-500); 0.1% BSA (Sigma Aldrich, 3050 Spruce Street, St. Louis, Mo. 63103; Cat #, A3059). Assay Buffer B: 20 mM Tris HCl, pH 7.3; 150 mM NaCl (Fisher Chemicals; Cat #, S78449).
The hERG binding assay results are summarized in Table 2, wherein A represents no measured activity (i.e., a value greater than 100 μM), and B represents a value greater than 10 μM but less than 100 μM and C represents a value less than 10 μM.

[2] = molecular target: T2, CCR3 receptor (UniProt P51677); assay: CCR3 Receptor Binding Assay ([125I]-labeled human eotaxin/CCL11 displacement on cells); settings: 0.1 nM [125I]-labeled human eotaxin/CCL11, 60 min at room temperature
T2 sequence (P51677 1-355): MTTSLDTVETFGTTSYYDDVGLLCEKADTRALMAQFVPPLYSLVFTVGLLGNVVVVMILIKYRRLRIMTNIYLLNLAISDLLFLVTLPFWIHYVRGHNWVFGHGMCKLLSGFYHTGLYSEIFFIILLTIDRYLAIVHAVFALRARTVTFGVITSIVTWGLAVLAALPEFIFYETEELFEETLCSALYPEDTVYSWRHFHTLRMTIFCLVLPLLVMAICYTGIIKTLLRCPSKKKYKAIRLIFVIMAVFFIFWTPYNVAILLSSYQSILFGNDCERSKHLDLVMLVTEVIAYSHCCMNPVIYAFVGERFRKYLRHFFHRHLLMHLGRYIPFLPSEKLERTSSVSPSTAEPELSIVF
Protocol: Cells were washed once with PBS and resuspended in a binding buffer (25 mM HEPES pH 7.6, 5 mM MgCl2, 1 mM CaCl2, 0.5% BSA, 0.1% NaN3). […] of cell suspension (2×10^5 cells/well) and 0.1 nM [^125I]-labeled human eotaxin/CCL11 (2000 Ci/mmol specific activity) were mixed in a 96-well U-bottom polypropylene plate, and incubated for 60 min at room temperature for the binding reaction. The cell suspension was then transferred to a filtration plate (#MAFB, Millipore), and washed 3 times with the binding buffer containing 0.5 M NaCl, scintillant added, and the radioactivity was counted on a TopCount (Packard). For the determination of non-specific binding, the cell suspension and [^125I]-labeled human eotaxin/CCL11 were incubated in the presence of 500 nM of unlabeled human eotaxin/CCL11. See, lino et al., “Molecular cloning and functional characterization of cynomolgus monkey (Macaca fascicularis) CC chemokine receptor, CCR3,” Cytokine 2002, 19, 276-286.
The biological results are summarized in Table 1, wherein A represents a value no greater than 50 nM, and B represents a value greater than 50 nM but no greater than 500 nM, C represents a value greater than 500 nM but no greater than 5 μM; and D represents a value greater than 5 μM.

Row | Ki [2] [nM] | Compound | Ki at 1 h [1] [nM] | Ki [1] [nM]
1 | > 5000 | CC(C)(C)OC(=O)N1CCC(NS(=O)(=O)c2cc(C#N)ccc2Oc2cc(Cl)cc(Cl)c2)CC1 [Compound 2] | > 100000 | 
2 | 50 to 500 | CC(C)NC(=S)N1CCC(NS(=O)(=O)c2cc(C#N)ccc2Oc2cc(Cl)cc(Cl)c2)CC1 [Compound 36] | 10000 to 100000 | 
3 | 50 to 500 | CC(=O)N1CCC(NS(=O)(=O)c2cc(C#N)ccc2Oc2cc(Cl)cc(Cl)c2)CC1 [Compound 38] | > 100000 | 

Second part, the compound before the results:

Row | Compound | Ki [2] [nM] | Ki at 1 h [1] [nM] | Ki [1] [nM]
4 | N#Cc1ccc(Oc2cc(Cl)cc(Cl)c2)c(S(=O)(=O)N2CCC(NS(=O)(=O)c3cccc(F)c3)CC2)c1 [Compound 25, N-(1-(5-cyano-2-(3,5-dichlorophenoxy)phenylsulfonyl)piperidin-4-yl)-3-fluorobenzenesulfonamide] | 50 to 500 |  | > 100000
5 | Cc1ccc(S(=O)(=O)N2CCC(NS(=O)(=O)c3cc(C#N)ccc3Oc3cc(Cl)cc(Cl)c3)CC2)cc1 [Compound 30, 5-cyano-2-(3,5-dichlorophenoxy)-N-(1-tosylpiperidin-4-yl)benzenesulfonamide] | 50 to 500 |  | > 100000
6 | CS(=O)(=O)N1CCC(NS(=O)(=O)c2cc(C#N)ccc2Oc2cc(Cl)cc(Cl)c2)CC1 [Compound 33] | 50 to 500 | > 100000 | 
7 | N#Cc1ccc(Oc2cc(Cl)cc(Cl)c2)c(S(=O)(=O)N2CCC(NC(=O)Nc3cccc(F)c3)CC2)c1 [Compound 52] | 500 to 5000 | > 100000 | 
